Assay results taken from patent US20200216439A1, “HETERO-1,5,6,7-TETRAHYDRO-4H-INDOL-4-ONES” (BAYER PHARMA AKTIENGESELLSCHAFT, priority 2015, published 2020).

Biological target: T1, catalytic domain of human Bub1 (amino acids 704-1085) (Homo sapiens, UniProt O43683)
T1 construct: catalytic domain of human Bub1 (amino acids 704-1085); His6 (N); made in house; host or cells: Hi5 insect cells
Assay: Bub1 kinase assay (TR-FRET)
Format: biochemical
Conditions: TR-FRET; ATP 10 μM, peptide substrate 1 μM; 60 min at 22° C.; average or median if tested more than once; read-out: Inhibition of Bub1 kinase IC50
Summary of the method: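 Human Bub1 catalytic domain (704-1085, His6-tagged, Hi5-expressed, ~200 ng/mL) preincubated with compound 15 min at 22 °C, then reacted 60 min at 22 °C with 10 μM ATP and 1 μM biotinylated peptide substrate, pH 7.5. EDTA stop; TR-FRET 665/620 ratio; IC50 from 4-parameter fit, 11 concentrations in duplicate.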

T1 sequence (O43683 704-1085): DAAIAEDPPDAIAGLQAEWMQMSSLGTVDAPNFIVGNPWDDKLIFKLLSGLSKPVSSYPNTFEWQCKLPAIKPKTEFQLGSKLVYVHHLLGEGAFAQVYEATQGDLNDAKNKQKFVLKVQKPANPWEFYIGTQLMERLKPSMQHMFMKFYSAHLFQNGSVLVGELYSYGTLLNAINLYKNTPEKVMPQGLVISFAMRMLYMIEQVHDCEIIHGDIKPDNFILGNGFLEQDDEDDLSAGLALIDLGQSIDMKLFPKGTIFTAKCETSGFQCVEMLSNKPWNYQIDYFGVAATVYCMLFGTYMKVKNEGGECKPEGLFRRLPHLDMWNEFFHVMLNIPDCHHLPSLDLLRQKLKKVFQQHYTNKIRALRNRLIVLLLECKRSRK

IC50 | SMILES
18 nM | CC(C)(C)OC(=O)N1CC(=O)c2c([nH]c(-c3ccncc3OCC(F)F)c2Nc2ccccc2)C1 [Example 220, tert-Butyl 3-anilino-2-[3-(2,2-difluoroethoxy)pyridin-4-yl]-4-oxo-1,4,5,7-tetrahydro-6H-pyrrolo[2,3-c]pyridine-6-carboxylate]
222 nM | O=C1CNCc2[nH]c(-c3ccncc3OCC(F)F)c(Nc3ccccc3)c21 [Example 224, 3-anilino-2-[3-(2,2-difluoroethoxy)pyridin-4-yl]-1,5,6,7-tetrahydro-4H-pyrrolo[2,3-c]pyridin-4-one]
33 nM | CC(=O)N1CC(=O)c2c([nH]c(-c3ccncc3OCC(F)F)c2Nc2ccccc2)C1 [Example 228, 6-Acetyl-3-anilino-2-[3-(2,2-difluoroethoxy)pyridin-4-yl]-1,5,6,7-tetrahydro-4H-pyrrolo[2,3-c]pyridin-4-one]
163 nM | CC(=O)N1CC(=O)c2c([nH]c(-c3ccncc3OCC(F)(F)F)c2Nc2ccccc2)C1 [Example 229, 6-Acetyl-3-(phenylamino)-2-[3-(2,2,2-trifluoroethoxy)pyridin-4-yl]-1,5,6,7-tetrahydro-4H-pyrrolo[2,3-c]pyridin-4-one]
40 nM | CC(=O)N1CC(=O)c2c([nH]c(-c3ccncc3OCC3CC3)c2Nc2ccccc2)C1 [Example 231, 6-Acetyl-2-[3-(cyclopropylmethoxy)pyridin-4-yl]-3-(phenylamino)-1,5,6,7-tetrahydro-4H-pyrrolo[2,3-c]pyridin-4-one]
12 nM | CS(=O)(=O)N1CC(=O)c2c([nH]c(-c3ccncc3OCC(F)F)c2Nc2ccccc2)C1 [Example 232, 3-Anilino-2-[3-(2,2-difluoroethoxy)pyridin-4-yl]-6-(methylsulfonyl)-1,5,6,7-tetrahydro-4H-pyrrolo[2,3-c]pyridin-4-one]
16 nM | COC(=O)N1CC(=O)c2c([nH]c(-c3ccncc3OCC(F)F)c2Nc2ccccc2)C1 [Example 236, Methyl 2-[3-(2,2-difluoroethoxy)pyridin-4-yl]-4-oxo-3-(phenylamino)-1,4,5,7-tetrahydro-6H-pyrrolo[2,3-c]pyridine-6-carboxylate]
18 nM | CNC(=O)N1CC(=O)c2c([nH]c(-c3ccncc3OCC(F)F)c2Nc2ccccc2)C1 [Example 237, 2-[3-(2,2-Difluoroethoxy)pyridin-4-yl]-N-methyl-4-oxo-3-(phenylamino)-1,4,5,7-tetrahydro-6H-pyrrolo[2,3-c]pyridine-6-carboxamide]
8 nM | CN(C)C(=O)N1CC(=O)c2c([nH]c(-c3ccncc3OCC(F)F)c2Nc2ccccc2)C1 [Example 238, 2-[3-(2,2-Difluoroethoxy)pyridin-4-yl]-N,N-dimethyl-4-oxo-3-(phenylamino)-1,4,5,7-tetrahydro-6H-pyrrolo[2,3-c]pyridine-6-carboxamide]
20 nM | O=C1CN(C(=O)N2CCOCC2)Cc2[nH]c(-c3ccncc3OCC(F)F)c(Nc3ccccc3)c21 [Example 239, 2-[3-(2,2-Difluoroethoxy)pyridin-4-yl]-6-(morpholin-4-ylcarbonyl)-3-(phenylamino)-1,5,6,7-tetrahydro-4H-pyrrolo[2,3-c]pyridin-4-one]
66 nM | CN1CCN(C(=O)N2CC(=O)c3c([nH]c(-c4ccncc4OCC(F)F)c3Nc3ccccc3)C2)CC1 [Example 240, 2-[3-(2,2-Difluoroethoxy)pyridin-4-yl]-6-[(4-methylpiperazin-1-yl)carbonyl]-3-(phenylamino)-1,5,6,7-tetrahydro-4H-pyrrolo[2,3-c]pyridin-4-one]
13 nM | CC(C)S(=O)(=O)N1CC(=O)c2c([nH]c(-c3ccncc3OCC(F)F)c2Nc2ccccc2)C1 [Example 241, 2-[3-(2,2-Difluoroethoxy)pyridin-4-yl]-3-(phenylamino)-6-(propan-2-ylsulfonyl)-1,5,6,7-tetrahydro-4H-pyrrolo[2,3-c]pyridin-4-one]
57 nM | COC(=O)N1CC(=O)c2c([nH]c(-c3ccncc3OCC(F)(F)F)c2Nc2ccccc2)C1 [Example 242, Methyl 4-oxo-3-(phenylamino)-2-[3-(2,2,2-trifluoroethoxy)pyridin-4-yl]-1,4,5,7-tetrahydro-6H-pyrrolo[2,3-c]pyridine-6-carboxylate]
55 nM | CNC(=O)N1CC(=O)c2c([nH]c(-c3ccncc3OCC(F)(F)F)c2Nc2ccccc2)C1 [Example 243, N-Methyl-44-oxo-3-(phenylamino)-2-[3-(2,2,2-trifluoroethoxy)pyridin-4-yl]-1,4,5,7-tetrahydro-6H-pyrrolo[2,3-c]pyridine-6-carboxamide]

The next lines start with the molecule.

SMILES | IC50
CC(C)S(=O)(=O)N1CC(=O)c2c([nH]c(-c3ccnc(NC(=O)[C@@H]4C[C@@H]4F)c3)c2Nc2ccccc2)C1 [Example 214, (1S,2S)-2-Fluoro-N-4-[4-oxo-3-(phenylamino)-6-(propan-2-ylsulfonyl)-4,5,6,7-tetrahydro-1H-pyrrolo[2,3-c]pyridin-2-yl]pyridin-2-ylcyclopropanecarboxamide] | 3 nM
CCOC(=O)N1CC(=O)c2c([nH]c(-c3ccnc(NC(=O)[C@@H]4C[C@@H]4F)c3)c2Nc2ccccc2)C1 [Example 215, Ethyl 2-[2-([(1S,2S)-2-fluorocyclopropyl]carbonylamino)pyridin-4-yl]-4-oxo-3-(phenylamino)-1,4,5,7-tetrahydro-6H-pyrrolo[2,3-c]pyridine-6-carboxylate] | 4 nM
CC(C)OC(=O)N1CC(=O)c2c([nH]c(-c3ccnc(NC(=O)[C@@H]4C[C@@H]4F)c3)c2Nc2ccccc2)C1 [Example 216, Propan-2-yl 2-[2-([(1S,2S)-2-fluorocyclopropyl]carbonylamino)pyridin-4-yl]-4-oxo-3-(phenylamino)-1,4,5,7-tetrahydro-6H-pyrrolo[2,3-c]pyridine-6-carboxylate] | 6 nM
CCN(CC)C(=O)N1CC(=O)c2c([nH]c(-c3ccnc(NC(=O)[C@@H]4C[C@@H]4F)c3)c2Nc2ccccc2)C1 [Example 217, N,N-Diethyl-2-[2-([(1S,2S)-2-fluorocyclopropyl]carbonylamino)pyridin-4-yl]-4-oxo-3-(phenylamino)-1,4,5,7-tetrahydro-6H-pyrrolo[2,3-c]pyridine-6-carboxamide] | 4 nM
CC(=O)Nc1cc(-c2[nH]c3c(c2Nc2ccccc2)C(=O)CN(C(=O)CC(C)(C)C(F)(F)F)C3)ccn1 [Example 219, N-{4-[3-Anilino-4-oxo-6-(4,4,4-trifluoro-3,3-dimethylbutanoyl)-4,5,6,7-tetrahydro-1H-pyrrolo[2,3-c]pyridin-2-yl]pyridin-2-yl}acetamide] | 22 nM
CC(C)(C)OC(=O)N1CC(=O)c2c([nH]c(-c3ccncc3OCC(F)(F)F)c2Nc2ccccc2)C1 [Example 221, tert-Butyl 3-anilino-4-oxo-2-[3-(2,2,2-trifluoroethoxy)pyridin-4-yl]-1,4,5,7-tetrahydro-6H-pyrrolo[2,3-c]pyridine-6-carboxylate] | 104 nM
COCCOc1cnccc1-c1[nH]c2c(c1Nc1ccccc1)C(=O)CN(C(=O)OC(C)(C)C)C2 [Example 222, tert-Butyl 3-anilino-2-[3-(2-methoxyethoxy)pyridin-4-yl]-4-oxo-1,4,5,7-tetrahydro-6H-pyrrolo[2,3-c]pyridine-6-carboxylate] | 9 nM
CC(C)(C)OC(=O)N1CC(=O)c2c([nH]c(-c3ccncc3OCC3CC3)c2Nc2ccccc2)C1 [Example 223, tert-Butyl 3-anilino-2-[3-(cyclopropylmethoxy)pyridin-4-yl]-4-oxo-1,4,5,7-tetrahydro-6H-pyrrolo[2,3-c]pyridine-6-carboxylate] | 14 nM
O=C1CNCc2[nH]c(-c3ccncc3OCC(F)(F)F)c(Nc3ccccc3)c21 [Example 225, 3-Anilino-2-[3-(2,2,2-trifluoroethoxy)pyridin-4-yl]-1,5,6,7-tetrahydro-4H-pyrrolo[2,3-c]pyridin-4-one] | 1020 nM
COCCOc1cnccc1-c1[nH]c2c(c1Nc1ccccc1)C(=O)CNC2 [Example 226, 3-anilino-2-[3-(2-methoxyethoxy)pyridin-4-yl]-1,5,6,7-tetrahydro-4H-pyrrolo[2,3-c]pyridin-4-one] | 72 nM
O=C1CNCc2[nH]c(-c3ccncc3OCC3CC3)c(Nc3ccccc3)c21 [Example 227, 3-anilino-2-[3-(cyclopropylmethoxy)pyridin-4-yl]-1,5,6,7-tetrahydro-4H-pyrrolo[2,3-c]pyridin-4-one] | 140 nM
COCCOc1cnccc1-c1[nH]c2c(c1Nc1ccccc1)C(=O)CN(C(C)=O)C2 [Example 230, 6-Acetyl-2-[3-(2-methoxyethoxy)pyridin-4-yl]-3-(phenylamino)-1,5,6,7-tetrahydro-4H-pyrrolo[2,3-c]pyridin-4-one] | 16 nM
CS(=O)(=O)N1CC(=O)c2c([nH]c(-c3ccncc3OCC(F)(F)F)c2Nc2ccccc2)C1 [Example 233, 6-(Methylsulfonyl)-3-(phenylamino)-2-[3-(2,2,2-trifluoroethoxy)pyridin-4-yl]-1,5,6,7-tetrahydro-4H-pyrrolo[2,3-c]pyridin-4-one] | 36 nM
COCCOc1cnccc1-c1[nH]c2c(c1Nc1ccccc1)C(=O)CN(S(C)(=O)=O)C2 [Example 234] | 5 nM
CS(=O)(=O)N1CC(=O)c2c([nH]c(-c3ccncc3OCC3CC3)c2Nc2ccccc2)C1 [Example 235, 2-[3-(Cyclopropylmethoxy)pyridin-4-yl]-6-(methylsulfonyl)-3-(phenylamino)-1,5,6,7-tetrahydro-4H-pyrrolo[2,3-c]pyridin-4-one] | 6 nM
CN(C)C(=O)N1CC(=O)c2c([nH]c(-c3ccncc3OCC(F)(F)F)c2Nc2ccccc2)C1 [Example 244, N,N-Dimethyl-4-oxo-3-(phenylamino)-2-[3-(2,2,2-trifluoroethoxy)pyridin-4-yl]-1,4,5,7-tetrahydro-6H-pyrrolo[2,3-c]pyridine-6-carboxamide] | 18 nM
